*1 amine or outer side, *2 acyl side, *3 side chain or, on linkers, in order; H or OH if unused. Where a SMILES comes first, the peptide text is derived from it. Bridges are numbered along the chain shown (N, C = ends). [ ]: non-standard residue; d: D form. ξ: configuration not given here. Trp(1-CH2COOH) = N[C@@H](Cc1cn(CC(=O)O)c2ccccc12)C(=O)O; Trp(βS-Me) = C[C@@H](c1c[nH]c2ccccc12)[C@H](N)C(=O)O; X7 = CCCC[C@@H](C(=O)C[C@@H](CO)C(=O)[*:2])N(C)[*:1]; Phe(3,4,5-F3) = N[C@@H](Cc1cc(F)c(F)c(F)c1)C(=O)O; Phe(3,4-F2) = N[C@@H](Cc1ccc(F)c(F)c1)C(=O)O; NMePhe(4-F) = CN[C@@H](Cc1ccc(F)cc1)C(=O)O; Phe(4-F) = N[C@@H](Cc1ccc(F)cc1)C(=O)O; d(cisHyp) = O=C(O)[C@H]1C[C@@H](O)CN1; Bta = N[C@@H](Cc1csc2ccccc12)C(=O)O; Hyp = O=C(O)[C@@H]1C[C@@H](O)CN1; NMeF = CN[C@@H](Cc1ccccc1)C(=O)O; X1 = O=C([C@H]1COCCN1[*:1])[*:2]; NMeL = CN[C@@H](CC(C)C)C(=O)O; NMeNle = CCCC[C@H](NC)C(=O)O; dPip = O=C(O)[C@H]1CCCCN1; hSer = N[C@@H](CCO)C(=O)O; NMeA = CN[C@@H](C)C(=O)O; Orn = NCCC[C@H](N)C(=O)O; dThz = O=C(O)[C@H]1CSCN1; Dab = NCC[C@H](N)C(=O)O; Dap = NC[C@H](N)C(=O)O; ξC = NC(CS)C(=O)O; Sar = CNCC(=O)O
What follows are compounds tested against T1, Human PD-L1/PD-1 (Homo sapiens, UniProt Q9NZQ7) (assay: HTRF Human PD-L1/PD-1 binding assay (PD-1-Ig/PD-L1-His)). Conditions: PD-L1-His 10 nM, PD-1-Ig 20 nM; class symbol; read-out: HTRF Human PD-L1/PD-1 Binding Assay IC50 Range.
T1 construct: TVMV protease cleavage site (C); made in house; host or cells: HEK293T cells
Procedure, shortened: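 Truncated Fc-fused human PD-1 (aa 25-167) at 20 nM and His-tagged PD-L1 (aa 18-239) at 10 nM final are used, with peptides preincubated 15 min with PD-L1. Detection uses europium-cryptate anti-Ig and APC anti-His antibodies; 665/620 nm ratio.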

T1 sequence (Q9NZQ7 with tags, fused parts or gaps): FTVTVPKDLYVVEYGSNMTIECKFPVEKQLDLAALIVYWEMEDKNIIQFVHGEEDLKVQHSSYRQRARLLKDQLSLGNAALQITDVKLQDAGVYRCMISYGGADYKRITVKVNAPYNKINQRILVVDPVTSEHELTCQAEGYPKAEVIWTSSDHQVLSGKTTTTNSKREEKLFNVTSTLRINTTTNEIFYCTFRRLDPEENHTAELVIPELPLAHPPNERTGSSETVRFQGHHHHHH

| Structure (SMILES) | IC50 [nM] |
| --- | --- |
| CCCC[C@H]1C(=O)N2C[C@H](O)C[C@@H]2C(=O)N[C@@H](CC(=O)O)C(=O)N[C@@H](C(C)C)C(=O)N(C)[C@@H](Cc2ccccc2)C(=O)N[C@@H](CCCN)C(=O)N2CCOC[C@@H]2C(=O)N[C@@H](Cc2c[nH]c3ccccc23)C(=O)N[C@@H](Cc2ccc(O)cc2)C(=O)N[C@@H](CCO)C(=O)N[C@H](C(=O)NCC(N)=O)CSCC(=O)N[C@@H](Cc2cc(F)c(F)c(F)c2)C(=O)N(C)[C@@H](Cc2ccccc2)C(=O)N1C [Example 10158] ({CH2CO}-[Phe(3,4,5-F3)][NMeF][NMeNle][d(cisHyp)]DV[NMeF][Orn][X1]WY[hSer]CG-NH2; thioether N-13) | 1 to 9.9 |
| CCCC[C@H]1C(=O)N2C[C@H](O)C[C@@H]2C(=O)N[C@@H](CC(=O)O)C(=O)N[C@@H](C(C)C)C(=O)N(C)[C@@H](Cc2ccccc2)C(=O)N[C@@H](CC(N)=O)C(=O)N2C[C@H](O)C[C@@H]2C(=O)N[C@@H](Cc2c[nH]c3ccccc23)C(=O)N[C@@H](Cc2ccc(O)cc2)C(=O)N[C@@H](CC(C)C)C(=O)N[C@H](C(=O)NCC(N)=O)CSCC(=O)N[C@@H](Cc2cc(F)c(F)c(F)c2)C(=O)N(C)[C@@H](Cc2ccccc2)C(=O)N1C [Example 9361] ({CH2CO}-[Phe(3,4,5-F3)][NMeF][NMeNle][d(cisHyp)]DV[NMeF]N[d(cisHyp)]WYLCG-NH2; thioether N-13) | 1 to 9.9 |
| CCCC[C@H]1C(=O)N(C)[C@@H](CCCC)C(=O)N[C@@H](CO)C(=O)N[C@H](C(=O)NCC(N)=O)CSCC(=O)N[C@@H](Cc2ccc(OC)cc2)C(=O)N(C)[C@@H](C)C(=O)N[C@@H](CC(N)=O)C(=O)N2CCC[C@H]2C(=O)N[C@@H](Cc2c[nH]cn2)C(=O)N[C@@H](CCC(N)=O)C(=O)N2C[C@H](O)C[C@H]2C(=O)N[C@@H](Cc2c[nH]c3ccccc23)C(=O)N[C@@H](CO)C(=O)N[C@@H](Cc2cn(CC(=O)O)c3ccccc23)C(=O)N1C [Example 7143] ({CH2CO}-Y(Me)[NMeA]NPHQ[Hyp]WS[Trp(1-CH2COOH)][NMeNle][NMeNle]SCG-NH2; thioether N-14) | 1 to 9.9 |
| CCCC[C@H]1C(=O)N(C)[C@@H](CCCC)C(=O)N[C@@H](CC(C)C)C(=O)N[C@H](C(=O)NCC(N)=O)CSCC(=O)N[C@@H](Cc2ccc(O)cc2)C(=O)N(C)[C@@H](C)C(=O)N[C@@H](CC(N)=O)C(=O)N2CCC[C@H]2C(=O)N[C@@H](Cc2c[nH]cn2)C(=O)N[C@@H](CCC(N)=O)C(=O)N2C[C@H](O)C[C@H]2C(=O)N[C@@H]([C@@H](C)c2c[nH]c3ccccc23)C(=O)N[C@@H](CO)C(=O)N[C@@H](Cc2c[nH]c3ccccc23)C(=O)N1C [Example 10554] ({CH2CO}-Y[NMeA]NPHQ[Hyp][Trp(βS-Me)]SW[NMeNle][NMeNle]LCG-NH2; thioether N-14) | 1 to 9.9 |
| CCCC[C@H]1C(=O)N(C)[C@@H](CCCC)C(=O)N[C@@H](CCCNC(=N)N)C(=O)NC(C(=O)NCC(N)=O)CSCC(=O)N[C@@H](Cc2ccc(O)cc2)C(=O)N(C)[C@@H](C)C(=O)N[C@@H](CC(N)=O)C(=O)N2CCC[C@H]2C(=O)N[C@@H](CO)C(=O)N[C@@H](CO)C(=O)N2C[C@H](O)C[C@H]2C(=O)N[C@@H](Cc2c[nH]c3ccccc23)C(=O)N[C@@H](CO)C(=O)N[C@@H](Cc2c[nH]c3ccccc23)C(=O)N1C (stereo partly drawn) [Example 10018] ({CH2CO}-Y[NMeA]NPSS[Hyp]WSW[NMeNle][NMeNle]R[ξC]G-NH2; thioether N-14) | 10 to 99.9 |
| CCCC[C@H]1C(=O)N(C)[C@@H](CCCC)C(=O)N[C@@H](CCC(=O)O)C(=O)N[C@H](C(=O)NCC(N)=O)CSCC(=O)N[C@@H](Cc2ccc(O)cc2)C(=O)N(C)[C@@H](C)C(=O)N[C@@H](CC(N)=O)C(=O)N2CCC[C@H]2C(=O)N[C@@H](CN)C(=O)N[C@@H](CC(C)C)C(=O)N2C[C@H](O)C[C@H]2C(=O)N[C@@H](Cc2c[nH]c3ccccc23)C(=O)N[C@@H](CO)C(=O)N[C@@H](Cc2cn(CC(=O)O)c3ccccc23)C(=O)N1C [Example 6137] ({CH2CO}-Y[NMeA]NP[Dap]L[Hyp]WS[Trp(1-CH2COOH)][NMeNle][NMeNle]ECG-NH2; thioether N-14) | 10 to 99.9 |

More lines, now with the values ahead:

| IC50 [nM] | Structure (SMILES) |
| --- | --- |
| 1 to 9.9 | CCCC[C@H]1C(=O)N(C)[C@@H](CCCC)C(=O)N[C@@H](CCN)C(=O)NC(C(=O)NCC(N)=O)CSCC(=O)N[C@@H](Cc2ccc(O)cc2)C(=O)N(C)[C@@H](C)C(=O)N[C@@H](CC(N)=O)C(=O)N2CCC[C@H]2C(=O)N[C@@H](CC(N)=O)C(=O)N[C@@H](CC(C)C)C(=O)N2CCC[C@H]2C(=O)N[C@@H](Cc2c[nH]c3ccccc23)C(=O)N[C@@H](CO)C(=O)N[C@@H](Cc2c[nH]c3ccccc23)C(=O)N1C (stereo partly drawn) [Example 9162] ({CH2CO}-Y[NMeA]NPNLPWSW[NMeNle][NMeNle][Dab][ξC]G-NH2; thioether N-14) |
| 100 to 990 | CCCC[C@H]1C(=O)N2CCC[C@@H]2C(=O)N[C@@H](CC(=O)O)C(=O)N[C@@H](C(C)C)C(=O)N(C)[C@@H](CC(C)C)C(=O)N[C@@H](Cc2ccc(O)cc2)C(=O)N2CCC[C@@H]2C(=O)N[C@@H](Cc2c[nH]c3ccccc23)C(=O)N[C@@H](Cc2ccc(O)cc2)C(=O)N[C@@H](CCCN)C(=O)N[C@H](C(=O)NCC(N)=O)CSCC(=O)N[C@@H](Cc2ccc(F)cc2)C(=O)N(C)[C@@H](Cc2ccccc2)C(=O)N1C [Example 9251] ({CH2CO}-[Phe(4-F)][NMeF][NMeNle][dP]DV[NMeL]Y[dP]WY[Orn]CG-NH2; thioether N-13) |
| 1 to 9.9 | CCCC[C@H]1C(=O)N(C)[C@@H](CCCC)C(=O)N[C@@H](CCCN)C(=O)N[C@H](C(=O)NCC(N)=O)CSCC(=O)N[C@@H](Cc2ccc(OC)cc2)C(=O)N(C)[C@@H](C)C(=O)N[C@@H](CC(=O)O)C(=O)N2CCC[C@H]2C(=O)N[C@@H](CN)C(=O)N[C@@H](CCCCN)C(=O)N2C[C@H](O)C[C@H]2C(=O)N[C@@H](Cc2c[nH]c3ccccc23)C(=O)N[C@@H](CC(=O)O)C(=O)N[C@@H](Cc2c[nH]c3ccccc23)C(=O)N1C [Example 7129] ({CH2CO}-Y(Me)[NMeA]DP[Dap]K[Hyp]WDW[NMeNle][NMeNle][Orn]CG-NH2; thioether N-14) |
| 1 to 9.9 | CCCC[C@H]1C(=O)N2C[C@H](O)C[C@@H]2C(=O)N[C@@H](CC(=O)O)C(=O)N[C@@H](C(C)C)C(=O)N(C)[C@@H](Cc2ccccc2)C(=O)N[C@@H](CC(=O)O)C(=O)N2C[C@H](O)C[C@@H]2C(=O)N[C@@H](Cc2c[nH]c3ccccc23)C(=O)N[C@@H](Cc2ccc(O)cc2)C(=O)N[C@@H](CC(C)C)C(=O)N[C@H](C(=O)NCC(N)=O)CSCC(=O)N[C@@H](Cc2ccc(F)c(F)c2)C(=O)N(C)[C@@H](Cc2ccccc2)C(=O)N1C [Example 9289] ({CH2CO}-[Phe(3,4-F2)][NMeF][NMeNle][d(cisHyp)]DV[NMeF]D[d(cisHyp)]WYLCG-NH2; thioether N-13) |
| 1 to 9.9 | CCCC[C@H]1C(=O)N(C)CC(=O)N[C@@H](CC(=O)O)C(=O)N[C@@H](C(C)C)C(=O)N(C)[C@@H](Cc2ccccc2)C(=O)N[C@@H](Cc2ccc(O)cc2)C(=O)N(C)CC(=O)N[C@@H]([C@@H](C)c2c[nH]c3ccccc23)C(=O)N[C@@H](Cc2ccc(O)cc2)C(=O)N[C@@H](CC(C)C)C(=O)N[C@H](C(=O)NCC(N)=O)CSCC(=O)N[C@@H](Cc2ccccc2)C(=O)N(C)[C@@H](Cc2ccccc2)C(=O)N1C [Example 10533] ({CH2CO}-F[NMeF][NMeNle][Sar]DV[NMeF]Y[Sar][Trp(βS-Me)]YLCG-NH2; thioether N-13) |
| 1 to 9.9 | CCCC[C@H]1C(=O)N2C[C@H](O)C[C@@H]2C(=O)N[C@@H](CC(=O)O)C(=O)N[C@@H](C(C)C)C(=O)N(C)[C@@H](Cc2ccccc2)C(=O)N[C@@H](CC(=O)O)C(=O)N2CSC[C@@H]2C(=O)N[C@@H](Cc2c[nH]c3ccccc23)C(=O)N[C@@H](Cc2ccc(O)cc2)C(=O)N[C@@H](CCO)C(=O)N[C@H](C(=O)NCC(N)=O)CSCC(=O)N[C@@H](Cc2cc(F)c(F)c(F)c2)C(=O)N(C)[C@@H](Cc2ccccc2)C(=O)N1C [Example 10151] ({CH2CO}-[Phe(3,4,5-F3)][NMeF][NMeNle][d(cisHyp)]DV[NMeF]D[dThz]WY[hSer]CG-NH2; thioether N-13) |
| 1 to 9.9 | CCCC[C@H]1C(=O)N2CCC[C@@H]2C(=O)N[C@@H](CC(=O)O)C(=O)N[C@@H](C(C)C)C(=O)N(C)[C@@H](Cc2ccccc2)C(=O)N[C@@H](CC(=O)O)C(=O)N2CCCC[C@@H]2C(=O)N[C@@H](Cc2c[nH]c3ccccc23)C(=O)N[C@@H](Cc2ccc(O)cc2)C(=O)N[C@@H](CC(N)=O)C(=O)N[C@H](C(=O)NCC(N)=O)CSCC(=O)N[C@@H](Cc2cc(F)c(F)c(F)c2)C(=O)N(C)[C@@H](Cc2ccc(F)cc2)C(=O)N1C [Example 10574] ({CH2CO}-[Phe(3,4,5-F3)][NMePhe(4-F)][NMeNle][dP]DV[NMeF]D[dPip]WYNCG-NH2; thioether N-13) |
| 10 to 99.9 | CCCC[C@H]1C(=O)N(C)[C@@H](CCCC)C(=O)C[C@@H](CO)C(=O)NC(C(=O)NCC(N)=O)CSCC(=O)N[C@@H](Cc2ccc(O)cc2)C(=O)N(C)[C@@H](C)C(=O)N[C@@H](CC(N)=O)C(=O)N2CCC[C@H]2C(=O)N[C@@H](CC(N)=O)C(=O)N[C@@H](CC(C)C)C(=O)N2CCC[C@H]2C(=O)N[C@@H](Cc2c[nH]c3ccccc23)C(=O)N[C@@H](CO)C(=O)N[C@@H](Cc2csc3ccccc23)C(=O)N1C (stereo partly drawn) [Example 9141] ({CH2CO}-Y[NMeA]NPNLPWS[Bta][NMeNle][X7][ξC]G-NH2; thioether N-13) |

Same assay, conditions: PD-L1-His 10 nM, PD-1-Ig 20 nM; read-out: HTRF Human PD-L1/PD-1 Binding Assay IC50

| Structure (SMILES) | IC50 [nM] |
| --- | --- |
| CCCC[C@H]1C(=O)N2CCC[C@@H]2C(=O)N[C@@H](CC(N)=O)C(=O)N[C@@H](C(C)C)C(=O)N(C)[C@@H](Cc2ccccc2)C(=O)N[C@@H](Cc2ccc(O)cc2)C(=O)N2CSC[C@@H]2C(=O)N[C@@H](Cc2c[nH]c3ccccc23)C(=O)N[C@@H](Cc2ccc(O)cc2)C(=O)N[C@@H](CC(C)C)C(=O)N[C@H](C(=O)NCC(N)=O)CSCC(=O)N[C@@H](Cc2ccccc2)C(=O)N(C)[C@@H](Cc2ccccc2)C(=O)N1C [Example 10069] ({CH2CO}-F[NMeF][NMeNle][dP]NV[NMeF]Y[dThz]WYLCG-NH2; thioether N-13) | 12.6 |

Source: US10538555B2, “Macrocyclic inhibitors of the PD-1/PD-L1 and CD80(B7-1)/PD-L1 protein/protein interactions” (BRISTOL-MYERS SQUIBB COMPANY, priority 2014, dated 2020)
